According to EP0606463B1, “NEUROMEDIN B RECEPTOR ANTAGONISTS” (The Administrators of The Tulane Educational Fund, priority 1992, dated 1994):
Where two headings read alike, the source gives them in different places. Where a SMILES comes first, the peptide text is derived from it. Bridges are numbered along the chain shown (N, C = ends). [ ]: non-standard residue; d: D form. 2Nal = N[C@@H](Cc1ccc2ccccc2c1)C(=O)O; d2Nal = N[C@H](Cc1ccc2ccccc2c1)C(=O)O

How the values were obtained:
rat NMB receptor = biological target: T1, rat NMB receptor (Rattus norvegicus, UniProt P24053); experiment: Binding of 125I-[D-Tyr0]NMB to NMB-R transfected BALB 3T3 cells; settings: for fold by which cyclo SS-octa was more potent than the analog: inhibition of ^125I-[Tyr^0]NMB binding to NMB-R transfected cells
T1 construct: a full length NMB-preferring bombesin receptor clone generated from rat esophagus; expressed in transfected cells; host or cells: BALB 3T3 cells
T1 sequence (P24053 1-390): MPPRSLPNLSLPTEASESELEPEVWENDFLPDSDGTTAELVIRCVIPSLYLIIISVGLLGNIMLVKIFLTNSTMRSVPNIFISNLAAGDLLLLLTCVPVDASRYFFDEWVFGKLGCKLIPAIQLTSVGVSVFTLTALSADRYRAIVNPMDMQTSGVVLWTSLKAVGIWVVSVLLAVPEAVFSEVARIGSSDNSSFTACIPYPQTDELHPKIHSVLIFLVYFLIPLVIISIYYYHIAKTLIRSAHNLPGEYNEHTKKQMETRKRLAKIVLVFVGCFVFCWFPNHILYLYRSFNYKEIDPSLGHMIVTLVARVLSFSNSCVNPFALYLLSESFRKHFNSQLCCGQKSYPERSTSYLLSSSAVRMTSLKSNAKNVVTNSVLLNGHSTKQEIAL
Protocol: (§1) Cells were passaged every 3-4 days at confluence, using 0.1% trypsin in 1 mM EDTA. Rat glioblastoma C-6 tumor cells were maintained similarly and were passaged weekly at confluence. Both cell lines were cultured at 37°C in a 5% CO2 atmosphere. Rat AR 42J pancreatic acinar cells were cultured in Dulbecco's modified Eagle's medium (DMEM) without antibiotics and supplemented with 10% (vol/vol) fetal calf serum. The incubation atmosphere consisted of 10% CO2-90% humidified air at 37°C.

NMB Receptor = biological target: T2, NMB Receptor (Rattus norvegicus, UniProt P24053); experiment: [3H]inositol phosphates (IP) in NMB-R transfected cells; format: cell-based; settings: for NMB-R Transfected Cells [^3H]IP Alone (10 µ M): analog 10 µM alone, no-additive control 13 ± 3; for NMB-R Transfected Cells [^3H]IP Plus NMB (3 nM): analog 10 µM plus NMB 3 nM, NMB without analog 186 ± 58
T2 construct: a full length NMB-preferring bombesin receptor clone generated from rat esophagus; expressed in transfected cells; host or cells: BALB 3T3 cells
T2 sequence (P24053 1-390): T1 sequence (P24053 1-390)
Protocol: as §1, with “As described previously [Wada, E., et al. Neuron 6:421 (1991)], BALB 3T3 cells expressing a stably transfected rat NMB receptor (NMB-R transfected cells) were obtained using calcium phosphate precipitation of a full length NMB-preferring bombesin receptor clone generated from rat esophagus and subcloned into a modified version of the pCD2 plasmid. Cells” for “Cells”
(§2) Total phosphoinositides in C-6 cells and in NMB-R transfected cells were determined as described previously, with minor modifications [Benya, R. V. et al. Mol. Pharmacol. 42:1058 (1992); and Wang, L-H. et al. Biochem. J. 286:641 (1992)]. Cells were grown to confluence in 24-well plates and then loaded with 100 µCi/ml myo-[2-^3H]inositol in Dulbecco's modified essential medium with 2% fetal bovine serum at 37°C for 48 hrs. Cells were washed and incubated in phosphoinositide buffer (standard buffer additionally containing 10 mM LiCl, 20 mM HEPES, 2 mM CaCl2, 2% BSA, and 1.2 mM MgSO4) for 15 min and then for 60 min at 37°C with agonists at various concentrations or with 3 nM NMB (a half-maximal effective concentration) and possible antagonists at different concentrations. Reactions were halted using ice-cold 1% HCl in methanol, and the inositol phosphates (IP) were isolated as described previously [Bologna, M. et al. Cancer 63:1714 (1989); and Endo, T. et al. J. Endocrinol. 131:313 (1991)]. Briefly, after loading of the anion exchange column, free [^3H]glycerophosphorylinositol was removed by washing with 5 mM disodium tetraborate in 60 mM sodium formate. Total [^3H]inositol phosphates were then eluted using 100 mM formic acid in 1.0 M ammonium formate as described previously [Benya, R. V. et al. Mol. Pharmacol. 42:1058 (1992); and Wang, L-H. et al. Biochem. J. 286:641 (1992)].

GRP Receptor = biological target: T3, GRP Receptor (Rattus norvegicus, UniProt P52500); experiment: Amylase release from rat pancreatic acini; format: cell-based; settings: for Rat Pancreatic Acini Amylase Release Alone (10µM): analog 10 µM alone, no-additive control 4 ± 1; for Rat Pancreatic Acini Amylase Release Plus Bn(0.3 nM): analog 10 µM plus Bn 0.3 nM, Bn without analog 15 ± 1
T3 construct: from tissue; host or cells: dispersed pancreatic acini
T3 sequence (P52500 whole entry): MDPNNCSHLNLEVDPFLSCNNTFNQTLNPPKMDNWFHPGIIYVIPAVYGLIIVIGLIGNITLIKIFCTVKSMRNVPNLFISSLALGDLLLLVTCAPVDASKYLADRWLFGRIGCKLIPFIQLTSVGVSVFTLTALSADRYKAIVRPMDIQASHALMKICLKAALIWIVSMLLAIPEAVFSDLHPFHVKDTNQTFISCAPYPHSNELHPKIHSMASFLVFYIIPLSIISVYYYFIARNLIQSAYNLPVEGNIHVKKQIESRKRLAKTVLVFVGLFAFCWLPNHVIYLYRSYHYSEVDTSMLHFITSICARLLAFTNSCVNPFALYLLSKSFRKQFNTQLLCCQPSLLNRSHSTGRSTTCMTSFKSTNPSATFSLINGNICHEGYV

[1] = biological target: T4, NMB receptors on rat olfactory bulb membranes (Rattus norvegicus, UniProt P24053); experiment: NMB membrane receptor assay (rat olfactory bulb membranes); format: binding; settings: rat olfactory bulb versus rat forebrain membranes (Table 4)
T4 construct: Membranes were prepared from rat olfactory bulb (NMB membrane receptor assay); from tissue; host or cells: rat olfactory bulb membranes
T4 sequence (P24053 1-390): T1 sequence (P24053 1-390)

[2] = biological target: T5, NMB receptors on C-6 cells (Rattus norvegicus, UniProt P24053); experiment: Binding of 125I-[D-Tyr0]NMB to C-6 glioblastoma cells; settings: NMB Receptor, Ki by method of Cheng, read-out: Ki(nM) ^123I-NMB Binding
T5 construct: endogenous in cells; host or cells: rat glioblastoma C-6 cells
Protocol: Binding studies using rat glioblastoma C-6 or NMB-R transfected cells were performed as described previously [Benya, R. V. et al. Mol. Pharmacol. 42:1058 (1992); and Wang, L-H. et al. Biochem. J. 286:641 (1992)] by suspending disaggregated cells in binding buffer, which was composed of standing buffer ([…], 7.7 mM KCl, 1.0 mM EGTA, 0.02% soybean trypsin inhibitor) additionally containing 50 mM HEPES, 1 mM MgCl2, 1.5 mM CaCl2, 2.2 mM KH2PO4, 0.015% glutamine, and 0.2% BSA (w\v) (pH 7.4). Incubations contained 75 pM ^125I-[D-Tyr^0]NMB and 15 x 10^6 C-6 cells/ml or 2 x 10^6 NMB-R transfected cells/ml, for 60 min at 22°C. Nonsaturable binding of ^125I-[D-Tyr^0]NMB was te amount of radioactivity associated with C-6 cells or NMB-R transfected cells when the incubation mixture contained […]. Nonsaturable binding was < 15% of total binding in all experiments; all values are reported herein as saturable binding (i.e., total minus nonsaturable binding).

[3] = biological target: T6, GRP receptors on rat pancreatic acini (Rattus norvegicus, UniProt P52500); experiment: Binding of 125I-[Tyr4]bombesin to pancreatic acini; settings: read-out: Ki (nM) ^123I[Tyr^4]BnBinding
T6 construct: from tissue; host or cells: dispersed pancreatic acini
T6 sequence (P52500 whole entry): as above
Excerpt: Nonsaturable binding was < 10% of total binding in all experiments.

[4] = biological target: T7, somatostatin receptors on AR 42J cells (Rattus norvegicus, UniProt P30680); experiment: Somatostatin membrane receptor assay (AR 42J cell membranes); format: binding; settings: AR 42J cells; concentrations up to 10 µM
T7 construct: endogenous in cells; host or cells: rat AR 42J pancreatic acinar cells (membranes)
T7 sequence (P30680 whole entry): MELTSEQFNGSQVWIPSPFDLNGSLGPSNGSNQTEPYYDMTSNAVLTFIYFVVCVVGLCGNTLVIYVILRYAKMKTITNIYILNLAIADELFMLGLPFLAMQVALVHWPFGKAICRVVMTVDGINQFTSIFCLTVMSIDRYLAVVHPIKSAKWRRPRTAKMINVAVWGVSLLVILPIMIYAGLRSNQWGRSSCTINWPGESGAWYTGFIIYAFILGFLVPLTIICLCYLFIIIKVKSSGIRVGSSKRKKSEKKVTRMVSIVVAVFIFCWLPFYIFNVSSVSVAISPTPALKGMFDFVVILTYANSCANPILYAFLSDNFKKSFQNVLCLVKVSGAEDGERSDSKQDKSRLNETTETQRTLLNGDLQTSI

mu opioid receptors = biological target: T8, mu opioid receptors (Rattus norvegicus, UniProt P33535); experiment: mu opioid membrane assay ([3H]DAGO, rat forebrain membranes); format: binding; settings: rat forebrain membranes; concentrations up to 10 µM
T8 construct: rat forebrain (TRH, mu and delta opioid membrane assays); from tissue; host or cells: rat forebrain membranes
T8 sequence (P33535 whole entry): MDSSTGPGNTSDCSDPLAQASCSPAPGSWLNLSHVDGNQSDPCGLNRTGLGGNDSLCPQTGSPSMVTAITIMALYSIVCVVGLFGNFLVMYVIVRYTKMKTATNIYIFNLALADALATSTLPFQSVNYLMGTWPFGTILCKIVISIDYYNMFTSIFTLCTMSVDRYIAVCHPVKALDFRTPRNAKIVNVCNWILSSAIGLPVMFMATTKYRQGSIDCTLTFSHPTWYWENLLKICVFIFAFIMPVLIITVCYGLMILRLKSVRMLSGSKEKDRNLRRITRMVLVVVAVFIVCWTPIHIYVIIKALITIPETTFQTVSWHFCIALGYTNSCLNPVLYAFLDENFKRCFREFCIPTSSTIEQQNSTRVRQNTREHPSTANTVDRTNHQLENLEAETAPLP

[5] = biological target: T9, NMB receptors on C-6 glioblastoma cells (Rattus norvegicus, UniProt P24053); experiment: NMB-stimulated [3H]IP in C-6 glioblastoma cells; format: cell-based; settings: C-6 glioblastoma cells; agonist without analog; basal 7.2±1.0
T9 construct: endogenous in cells; host or cells: rat glioblastoma C-6 cells
T9 sequence (P24053 1-390): T1 sequence (P24053 1-390)
Protocol: as §2, with “for 60 min at 37°C with agonists at various concentrations or with 3 nM NMB (a half-maximal effective concentration) and possible antagonists at different concentrations.” left out

SMILES | fold by which cyclo SS-octa was more potent than the analog (rat NMB receptor) [fold] | NMB-R Transfected Cells [^3H]IP Alone (10 µ M) (NMB Receptor) [dpm x 10^3] | NMB-R Transfected Cells [^3H]IP Plus NMB (3 nM) (NMB Receptor) [dpm x 10^3] | Rat Pancreatic Acini Amylase Release Alone (10µM) (GRP Receptor) [% total] | Rat Pancreatic Acini Amylase Release Plus Bn(0.3 nM) (GRP Receptor) [% total] | inhibition of binding of ^125I-[Tyr^11]SS-14 to somatostatin receptors [4] | inhibition of binding to mu opioid receptors (mu opioid receptors) | other results
CC(C)[C@@H]1NC(=O)[C@H](CCCCN)NC(=O)[C@@H](Cc2c[nH]c3ccccc23)NC(=O)[C@H](Cc2ccc(O)cc2)NC(=O)[C@@H](NC(=O)[C@H](N)Cc2ccc3ccccc3c2)CSSC[C@H](C(=O)N[C@@H](Cc2ccc3ccccc3c2)C(N)=O)NC1=O [Analog #11, [D-Cys^7]-cyclo SS-octa] (H-[d2Nal]CY[dW]KV[dC][2Nal]-NH2; disulfide 2-7; N-terminus assumed) | 6 | 10 ± 1 | 7 ± 4 | 2 ± 1 | 14 ± 1 | – | – | decrease in NMB receptor affinity compared with #1 (rat NMB receptor; structure-function comparison of Table 1 values): 5 fold; effect on NMB-stimulated increase in [^3H]IP (NMB Receptor; NMB-R transfected cells, 3 nM NMB, peptide 10 µM): completely inhibited; fold greater affinity for NMB receptors than mu opioid receptors [1]: > 50 fold
NCCCC[C@@H]1NC(=O)[C@@H](Cc2c[nH]c3ccccc23)NC(=O)[C@H](Cc2ccc(O)cc2)NC(=O)[C@@H](NC(=O)[C@H](N)Cc2ccc3ccccc3c2)CSSC[C@@H](C(=O)N[C@@H](Cc2ccc3ccccc3c2)C(N)=O)NC(=O)[C@H](Cc2ccc3ccccc3c2)NC1=O [Analog #3, [Nal^6]-cyclo SS-octa] (H-[d2Nal]CY[dW]K[2Nal]C[2Nal]-NH2; disulfide 2-7) | 4 | 11 ± 1 | 65 ± 15 | 3 ± 1 | 15 ± 1 | – | – | Ki [2]: 997 ± 76 nM; Ki (rat NMB receptor; NMB Receptor, Transfected Cells, Ki by method of Cheng, read-out: Ki (nM) ^123I-NMB Binding): 697 ± 64 nM; Ki (rat NMB receptor; NMB-R transfected cells, summary of Table 1, read-out: K1): 700 to 800 nM; IC50 (NMB Receptor; NMB Receptor, Transfected Cells, read-out: IC50 (nM) NMB-stimulated [^3H]IP): 2880 ± 188 nM; IC50 (NMB Receptor; NMB-R transfected cells, summary of Table 1, read-out: IC50 of NMB-stimulated increases in [^3H]IP): 3000 to 6600 nM; IC50 (GRP Receptor): > 10000 nM; Ki [3]: > 10000 nM
CSCC[C@H](NC(=O)[C@H](CC(C)C)NC(=O)[C@H](Cc1c[nH]cn1)NC(=O)CNC(=O)[C@@H](NC(=O)[C@H](C)NC(=O)[C@H](Cc1c[nH]c2ccccc12)NC(=O)[C@H](Cc1c[nH]cn1)NC(=O)[C@H](CC(N)=O)NC(=O)CNC(=O)[C@H](CCCNC(=N)N)NC(=O)[C@@H]1CCCN1C(=O)[C@H](Cc1ccc(O)cc1)NC(=O)[C@H](CCSC)NC(=O)[C@H](CCCCN)NC(=O)[C@@H](NC(=O)[C@H](CC(C)C)NC(=O)[C@@H](NC(=O)[C@@H](NC(=O)CNC(=O)CNC(=O)CNC(=O)[C@H](C)NC(=O)[C@@H]1CCCN1C(=O)[C@H](CC(C)C)NC(=O)[C@@H]1CCCN1C(=O)[C@@H](N)C(C)C)[C@@H](C)O)C(C)C)[C@@H](C)O)C(C)C)C(N)=O [GRP, gastrin-releasing peptide] | – | – | – | – | – | Neither NMB nor GRP at concentrations up to 10 µ M inhibited binding | Neither NMB nor GRP at concentrations up to 10 µ M inhibited binding | –
CSCC[C@H](NC(=O)[C@H](Cc1ccccc1)NC(=O)[C@H](Cc1c[nH]cn1)NC(=O)CNC(=O)[C@@H](NC(=O)[C@H](C)NC(=O)[C@H](Cc1c[nH]c2ccccc12)NC(=O)[C@H](CC(C)C)NC(=O)[C@H](CC(N)=O)NC(=O)CN)[C@@H](C)O)C(N)=O [NMB, neuromedin B] | – | – | – | – | – | Neither NMB nor GRP at concentrations up to 10 µ M inhibited binding | Neither NMB nor GRP at concentrations up to 10 µ M inhibited binding | increase in [^3H]IP caused by 3 nM NMB (NMB Receptor; NMB-R transfected cells): 14 fold; [^3H]IP, NMB (10 nM) Alone [5]: 21.0 ± 1.8 dpm x 10^3
